Measurements from ChEMBL document CHEMBL1151974, “Sesquiterpenoids and phenylpropanoids from pericarps of Illicium oligandrum” (2009).

Experiments:
[1] = tested on: SH-SY5Y; experiment: Neuroprotective activity against H2O2-induced human SH-SY5Y cell damage assessed as increase in cell viability at 1 uM pretreated 2 hrs before H2O2 challenge relative to control; format: functional
[2] = tested on: SH-SY5Y; experiment: Neuroprotective activity against H2O2-induced human SH-SY5Y cell damage assessed as increase in cell viability at 10 uM pretreated 2 hrs before H2O2 challenge relative to control; format: functional

Row | Compound | Activity [1] [%] | Activity [2] [%]
1 | C[C@]12COC(=O)C[C@@]3(CC(=O)[C@]1(C)O)[C@]2(O)CC[C@]3(C)O | 2.76 | –
2 | C[C@@]12COC(=O)[C@]1(C)[C@@H](O)[C@]13CC(=O)O[C@@]1(C)CC[C@]23O [ANISLACTONE B] | 12.55 | –
3 | C[C@@H]1[C@H](O)C[C@]23OC(=O)C[C@]12C[C@]1(O)OC[C@]3(C)[C@@H]1C [PSEUDOMAJUCIN] | – | 2.83
4 | VITAMIN E | – | 7.16
5 | COc1ccc([C@@H](O)[C@H](C)O)cc1 (relative stereo) [ERYTHRO ANETHOLE GLYCOL] | – | 7.29
6 | COc1ccc([C@@H]2O[C@@H]3[C@@H](O[C@H]2C)O[C@H](CO)[C@@H](O)[C@@H]3O)cc1 [OLIGANDRUMIN E] | – | 6.42
